The source of these data is patent publication EP4722207A1, “OXOISOINDOLINYL-SUBSTITUTED TETRAHYDROPYRIMIDINEDIONE DERIVATIVE AND USE THEREOF” (Gluetacs Therapeutics (Shanghai) Co., Ltd., priority 2023, dated 2024).

Structures are written as SMILES.

Holding throughout (format): cell-based
For one assay, the target named is T1, IKZF1 (Homo sapiens, UniProt Q13422+Q96SW2).
T1 construct: effects of the compounds of the present disclosure on the expression of target proteins in cells; endogenous in cells; host or cells: human PBMCs (hPBMCs)
The experiment in a line: Western-blot assay, substrate protein degradation in hPBMCs: IKZF1. To be noted: for IKZF1 substrate protein remaining %: compounds at 50 nM and 500 nM, 24 hours; for substrate protein remaining % IKZF1: 24 hours of compound treatment, 50 nM and 500 nM.

The target in another assay is T2, CK1α (Homo sapiens, UniProt P48729+Q96SW2).
T2 construct: effects of the compounds of the present disclosure on the expression of target proteins in cells; endogenous in cells; host or cells: human PBMCs (hPBMCs)
As to the kind of experiment: Western-blot assay, substrate protein degradation in hPBMCs: CK1α. To be noted: for CK1α substrate protein remaining %: compounds at 50 nM and 500 nM, 24 hours; for substrate protein remaining % CK1α: 24 hours of compound treatment, 50 nM and 500 nM.

For a further assay, the target named is T3, WEE1 (Homo sapiens, UniProt P30291+Q96SW2).
T3 construct: effects of the compounds of the present disclosure on the expression of target proteins in cells; endogenous in cells; host or cells: human PBMCs (hPBMCs)
As to the kind of experiment: Western-blot assay, substrate protein degradation in hPBMCs: WEE1. The following applies: for WEE1 substrate protein remaining %: compounds at 50 nM and 500 nM, 24 hours; for substrate protein remaining % WEE1: 24 hours of compound treatment, 50 nM and 500 nM.

A further assay addresses T4, IKZF2 (Homo sapiens, UniProt Q96SW2+Q9UKS7).
T4 construct: effects of the compounds of the present disclosure on the expression of target proteins in cells; endogenous in cells; host or cells: human PBMCs (hPBMCs)
As to the kind of experiment: Western-blot assay, substrate protein degradation in hPBMCs: IKZF2. To be noted: for IKZF2 substrate protein remaining %: compounds at 50 nM and 500 nM, 24 hours; for substrate protein remaining % IKZF2: 24 hours of compound treatment, 50 nM and 500 nM.

Another assay addresses T5, IKZF3 (Homo sapiens, UniProt Q96SW2+Q9UKT9).
T5 construct: effects of the compounds of the present disclosure on the expression of target proteins in cells; endogenous in cells; host or cells: human PBMCs (hPBMCs)
As to the kind of experiment: Western-blot assay, substrate protein degradation in hPBMCs: IKZF3. To be noted: for IKZF3 substrate protein remaining %: compounds at 50 nM and 500 nM, 24 hours; for substrate protein remaining % IKZF3: 24 hours of compound treatment, 50 nM and 500 nM.

The next assay deals with T6, GSPT1 (Homo sapiens, UniProt P15170+Q96SW2).
T6 construct: effects of the compounds of the present disclosure on the expression of target proteins in cells; endogenous in cells; host or cells: human PBMCs (hPBMCs)
As to the kind of experiment: Western-blot assay, substrate protein degradation in hPBMCs: GSPT1. To be noted: for GSPT1 substrate protein remaining %: compounds at 50 nM and 500 nM, 24 hours; for substrate protein remaining % GSPT1: 24 hours of compound treatment, 50 nM and 500 nM.

T6 sequence (P15170 whole entry): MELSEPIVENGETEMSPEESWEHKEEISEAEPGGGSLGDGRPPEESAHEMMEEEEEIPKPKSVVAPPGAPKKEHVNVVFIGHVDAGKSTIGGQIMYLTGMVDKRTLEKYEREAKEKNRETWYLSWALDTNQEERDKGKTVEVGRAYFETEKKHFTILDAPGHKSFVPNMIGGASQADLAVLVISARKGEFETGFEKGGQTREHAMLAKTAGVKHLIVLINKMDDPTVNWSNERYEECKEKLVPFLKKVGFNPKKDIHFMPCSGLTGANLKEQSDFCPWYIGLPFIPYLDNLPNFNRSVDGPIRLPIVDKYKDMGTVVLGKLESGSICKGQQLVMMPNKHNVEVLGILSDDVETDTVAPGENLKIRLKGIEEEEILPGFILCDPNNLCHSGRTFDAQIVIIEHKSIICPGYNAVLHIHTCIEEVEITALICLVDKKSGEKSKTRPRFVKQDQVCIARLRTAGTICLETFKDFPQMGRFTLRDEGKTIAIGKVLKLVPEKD
T6 sequence (Q96SW2 whole entry): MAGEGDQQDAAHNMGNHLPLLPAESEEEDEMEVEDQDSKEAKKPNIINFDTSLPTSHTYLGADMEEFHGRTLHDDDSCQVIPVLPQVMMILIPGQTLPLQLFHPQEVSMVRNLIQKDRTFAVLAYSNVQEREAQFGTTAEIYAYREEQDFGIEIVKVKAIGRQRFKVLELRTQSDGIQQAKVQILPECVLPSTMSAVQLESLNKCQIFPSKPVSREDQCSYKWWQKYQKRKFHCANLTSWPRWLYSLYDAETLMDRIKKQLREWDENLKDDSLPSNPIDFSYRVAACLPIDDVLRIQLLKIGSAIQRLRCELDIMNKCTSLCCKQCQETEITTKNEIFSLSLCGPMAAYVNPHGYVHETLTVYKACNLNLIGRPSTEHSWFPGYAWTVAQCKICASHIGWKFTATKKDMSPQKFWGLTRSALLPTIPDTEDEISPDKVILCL
T6 sequence (Q16531 whole entry partner): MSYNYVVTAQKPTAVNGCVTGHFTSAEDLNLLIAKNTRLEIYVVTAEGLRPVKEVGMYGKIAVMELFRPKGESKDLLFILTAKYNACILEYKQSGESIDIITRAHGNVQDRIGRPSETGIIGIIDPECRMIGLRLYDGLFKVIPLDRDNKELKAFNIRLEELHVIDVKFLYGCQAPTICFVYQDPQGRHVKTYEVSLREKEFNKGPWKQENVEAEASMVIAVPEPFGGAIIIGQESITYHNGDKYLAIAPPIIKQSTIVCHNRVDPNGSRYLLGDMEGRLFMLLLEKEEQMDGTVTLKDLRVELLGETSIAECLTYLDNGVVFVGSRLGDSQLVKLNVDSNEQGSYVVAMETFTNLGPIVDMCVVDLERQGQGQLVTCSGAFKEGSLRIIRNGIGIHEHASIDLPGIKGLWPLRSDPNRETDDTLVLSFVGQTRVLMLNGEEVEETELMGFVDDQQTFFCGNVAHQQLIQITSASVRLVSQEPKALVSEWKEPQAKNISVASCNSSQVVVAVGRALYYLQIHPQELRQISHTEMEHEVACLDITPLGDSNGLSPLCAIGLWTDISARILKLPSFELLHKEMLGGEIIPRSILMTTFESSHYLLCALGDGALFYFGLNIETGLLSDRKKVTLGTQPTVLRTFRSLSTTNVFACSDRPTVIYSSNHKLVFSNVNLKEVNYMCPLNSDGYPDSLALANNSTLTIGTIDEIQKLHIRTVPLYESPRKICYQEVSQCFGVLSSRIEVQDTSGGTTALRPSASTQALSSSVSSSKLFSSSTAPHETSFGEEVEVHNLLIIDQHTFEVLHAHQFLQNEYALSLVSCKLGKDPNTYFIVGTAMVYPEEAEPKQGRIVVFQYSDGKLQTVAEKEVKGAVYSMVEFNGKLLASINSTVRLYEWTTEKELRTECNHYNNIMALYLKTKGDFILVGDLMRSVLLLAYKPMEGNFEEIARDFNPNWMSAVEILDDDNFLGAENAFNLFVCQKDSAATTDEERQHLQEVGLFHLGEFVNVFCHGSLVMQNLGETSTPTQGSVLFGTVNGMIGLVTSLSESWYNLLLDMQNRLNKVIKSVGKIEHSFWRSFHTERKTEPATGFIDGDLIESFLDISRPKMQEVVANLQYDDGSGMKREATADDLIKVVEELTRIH
T2 sequence (P48729 whole entry): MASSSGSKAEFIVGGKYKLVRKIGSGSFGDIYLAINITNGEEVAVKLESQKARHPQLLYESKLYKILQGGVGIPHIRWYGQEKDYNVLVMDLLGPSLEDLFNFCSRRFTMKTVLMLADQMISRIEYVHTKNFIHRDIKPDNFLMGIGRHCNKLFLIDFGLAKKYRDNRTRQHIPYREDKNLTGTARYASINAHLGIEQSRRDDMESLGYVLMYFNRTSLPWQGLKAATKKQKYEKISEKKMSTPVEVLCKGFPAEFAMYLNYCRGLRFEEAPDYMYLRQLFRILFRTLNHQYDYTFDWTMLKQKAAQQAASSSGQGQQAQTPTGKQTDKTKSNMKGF
T2 sequence (Q96SW2 whole entry): as the sequence (Q96SW2 whole entry) above
T2 sequence (Q16531 whole entry partner): as the sequence (Q16531 whole entry partner) above
T4 sequence (Q9UKS7 whole entry): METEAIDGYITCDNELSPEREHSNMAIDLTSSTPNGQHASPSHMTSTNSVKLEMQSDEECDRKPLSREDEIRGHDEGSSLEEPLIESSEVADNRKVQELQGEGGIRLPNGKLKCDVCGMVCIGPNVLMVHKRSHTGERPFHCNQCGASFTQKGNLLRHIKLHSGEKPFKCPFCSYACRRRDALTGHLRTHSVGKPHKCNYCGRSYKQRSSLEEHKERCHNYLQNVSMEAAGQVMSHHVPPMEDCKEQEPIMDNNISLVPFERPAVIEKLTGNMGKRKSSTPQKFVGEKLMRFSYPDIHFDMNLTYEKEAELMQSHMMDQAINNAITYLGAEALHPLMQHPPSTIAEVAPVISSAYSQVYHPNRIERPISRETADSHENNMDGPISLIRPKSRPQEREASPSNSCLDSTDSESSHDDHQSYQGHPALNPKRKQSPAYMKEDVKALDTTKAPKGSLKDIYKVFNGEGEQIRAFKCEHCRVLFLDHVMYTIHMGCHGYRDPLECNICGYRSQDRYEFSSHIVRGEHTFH
T4 sequence (Q96SW2 whole entry): as the sequence (Q96SW2 whole entry) above
T4 sequence (Q16531 whole entry partner): as the sequence (Q16531 whole entry partner) above
T1 sequence (Q13422 whole entry): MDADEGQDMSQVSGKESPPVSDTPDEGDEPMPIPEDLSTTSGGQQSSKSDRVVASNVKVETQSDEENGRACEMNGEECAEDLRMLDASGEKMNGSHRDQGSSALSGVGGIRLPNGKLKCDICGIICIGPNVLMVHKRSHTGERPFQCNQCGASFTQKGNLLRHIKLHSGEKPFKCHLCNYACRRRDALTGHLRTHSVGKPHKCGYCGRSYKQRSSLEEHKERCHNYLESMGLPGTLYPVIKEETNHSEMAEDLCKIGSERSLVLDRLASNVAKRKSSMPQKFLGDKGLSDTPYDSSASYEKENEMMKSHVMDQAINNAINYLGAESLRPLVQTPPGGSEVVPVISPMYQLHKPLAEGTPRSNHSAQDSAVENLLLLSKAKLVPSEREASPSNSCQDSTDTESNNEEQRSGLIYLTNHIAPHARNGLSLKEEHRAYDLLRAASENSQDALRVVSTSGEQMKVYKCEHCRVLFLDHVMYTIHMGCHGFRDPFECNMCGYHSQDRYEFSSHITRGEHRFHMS
T1 sequence (Q96SW2 whole entry): as the sequence (Q96SW2 whole entry) above
T1 sequence (Q16531 whole entry partner): as the sequence (Q16531 whole entry partner) above
T3 sequence (P30291 whole entry): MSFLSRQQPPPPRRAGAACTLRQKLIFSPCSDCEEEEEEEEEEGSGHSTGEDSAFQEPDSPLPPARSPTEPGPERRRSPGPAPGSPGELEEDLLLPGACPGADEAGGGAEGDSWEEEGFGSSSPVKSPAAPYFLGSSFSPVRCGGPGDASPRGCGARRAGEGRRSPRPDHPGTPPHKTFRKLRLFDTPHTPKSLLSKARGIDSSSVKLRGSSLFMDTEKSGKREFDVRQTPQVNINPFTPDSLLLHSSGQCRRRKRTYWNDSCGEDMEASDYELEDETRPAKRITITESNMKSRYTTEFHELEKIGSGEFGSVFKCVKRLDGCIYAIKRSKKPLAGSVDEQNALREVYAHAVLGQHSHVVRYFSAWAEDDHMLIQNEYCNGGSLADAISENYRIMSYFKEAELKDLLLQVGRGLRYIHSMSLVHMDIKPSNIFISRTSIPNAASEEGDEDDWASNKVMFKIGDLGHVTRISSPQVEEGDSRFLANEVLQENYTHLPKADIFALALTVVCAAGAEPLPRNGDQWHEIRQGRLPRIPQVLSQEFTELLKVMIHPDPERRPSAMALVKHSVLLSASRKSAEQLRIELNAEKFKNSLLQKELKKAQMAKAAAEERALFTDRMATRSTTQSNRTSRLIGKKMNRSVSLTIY
T3 sequence (Q96SW2 whole entry): as the sequence (Q96SW2 whole entry) above
T3 sequence (Q16531 whole entry partner): as the sequence (Q16531 whole entry partner) above

Consider `O=C1CCN(N2C(=O)c3ccc(CN4CCN(c5nccc(Cl)c5Br)CC4)cc3C2=O)C(=O)N1` [GT-07291, 5-((4-(3-bromo-4-chloropyridin-2-yl)piperazin-1-yl)methyl)-2-(2,4-dioxotetrahydropyrimidin-1(2H)-yl)isoindoline-1,3-dione], for which the “IKZF1 substrate protein remaining %” value on IKZF1 is “B ("B" is defined as 80%< substrate protein remaining %≤ 100%)”. Also, the “CK1α substrate protein remaining %” value on CK1α is recorded as “B ("B" is defined as 80%< substrate protein remaining %≤ 100%)”. Moreover, the “WEE1 substrate protein remaining %” value on WEE1 is “A ("A" is defined as 0% ≤ substrate protein remaining % ≤ 80%)”. Besides, the “IKZF2 substrate protein remaining %” value at IKZF2 is on record as “B ("B" is defined as 80%< substrate protein remaining %≤ 100%)”. In addition, the “IKZF3 substrate protein remaining %” value at IKZF3 is listed as “B ("B" is defined as 80%< substrate protein remaining %≤ 100%)”. On GSPT1, the “GSPT1 substrate protein remaining %” value is “A ("A" is defined as 0% ≤ substrate protein remaining % ≤ 80%)”.
For the compound `O=C1CCN(N2C(=O)c3ccc(CN4CCCN(C(c5ccccc5)c5ccccc5)CC4)cc3C2=O)C(=O)N1` [GT-07295, 5-((4-benzhydryl-1,4-diazepan-1-yl)methyl)-2-(2,4-dioxotetrahydropyrimidin-1(2H)-yl)isoindoline-1,3-dione], the “IKZF1 substrate protein remaining %” value at IKZF1 is “B ("B" is defined as 80%< substrate protein remaining %≤ 100%)”. For the same compound, at CK1α, the “CK1α substrate protein remaining %” value is on record as “B ("B" is defined as 80%< substrate protein remaining %≤ 100%)”. Moreover, on WEE1, the “WEE1 substrate protein remaining %” value was “B ("B" is defined as 80%< substrate protein remaining %≤ 100%)”. For the same compound, the “IKZF2 substrate protein remaining %” value on IKZF2 was “B ("B" is defined as 80%< substrate protein remaining %≤ 100%)”. Further, the “IKZF3 substrate protein remaining %” value at IKZF3 is reported as “B ("B" is defined as 80%< substrate protein remaining %≤ 100%)”. Moreover, the “GSPT1 substrate protein remaining %” value on GSPT1 is on record as “A ("A" is defined as 0% ≤ substrate protein remaining % ≤ 80%)”.
Consider `CC1(C)CCC(CN2CCN(Cc3ccc4c(c3)CN(N3CCC(=O)NC3=O)C4=O)C(C(F)(F)F)C2)=C(c2ccc(Cl)cc2)C1` (stereo not drawn) [GT-07296, 1-(5-((4-((4'-chloro-5,5-dimethyl-3,4,5,6-tetrahydro-[1,1'-biphenyl]-2-yl)methyl)-2-(trifluoromethyl)piperazin-1-yl)methyl)-1-oxoisoindolin-2-yl)dihydropyrimidine-2,4(1H,3H)-dione], for which the “substrate protein remaining % IKZF1” value on IKZF1 is “A (0% ≤ substrate protein remaining % ≤ 80%)”. The “substrate protein remaining % CK1α” value at CK1α was “A (0% ≤ substrate protein remaining % ≤ 80%)”. In addition, at WEE1, the “substrate protein remaining % WEE1” value is listed as “A (0% ≤ substrate protein remaining % ≤ 80%)”. In addition, the “substrate protein remaining % IKZF2” value at IKZF2 is on record as “B (80%< substrate protein remaining %≤ 100%)”. For the same compound, on IKZF3, the “substrate protein remaining % IKZF3” value is given as “B (80%< substrate protein remaining %≤ 100%)”. The “substrate protein remaining % GSPT1” value on GSPT1 is “A (0% ≤ substrate protein remaining % ≤ 80%)”.
`O=C1CCN(N2Cc3cc(CN4CCN(CC5=C(c6ccc(F)cc6)CCCC5)CC4)ccc3C2=O)C(=O)N1` [GT-07297, 1-(5-((4-((4'-fluoro-3,4,5,6-tetrahydro-[1,1'-biphenyl]-2-yl)methyl)piperazin-1-yl)methyl)-1-oxoisoindolin-2-yl)dihydropyrimidine-2,4(1H,3H)-dione]: the “substrate protein remaining % IKZF1” value on IKZF1 was “B (80%< substrate protein remaining %≤ 100%)”. The “substrate protein remaining % CK1α” value at CK1α is reported as “A (0% ≤ substrate protein remaining % ≤ 80%)”. For the same compound, the “substrate protein remaining % WEE1” value on WEE1 was “A (0% ≤ substrate protein remaining % ≤ 80%)”. In addition, at IKZF2, the “substrate protein remaining % IKZF2” value is recorded as “A (0% ≤ substrate protein remaining % ≤ 80%)”. In addition, the “substrate protein remaining % IKZF3” value on IKZF3 is “A (0% ≤ substrate protein remaining % ≤ 80%)”. For the same compound, at GSPT1, the “substrate protein remaining % GSPT1” value is recorded as “A (0% ≤ substrate protein remaining % ≤ 80%)”.
In the case of `CC1(C)CCC(CN2CC3CCC2CN3Cc2ccc3c(c2)C(=O)N(N2CCC(=O)NC2=O)C3=O)=C(c2ccc(Cl)cc2)C1` (stereo not drawn) [GT-07300, 5-((5-((4'-chloro-5,5-dimethyl-3,4,5,6-tetrahydro-[1,1'-biphenyl]-2-yl)methyl)-2,5-diazabicyclo[2.2.2]octan-2-yl)methyl)-2-(2,4-dioxotetrahydropyrimidin-1(2H)-yl)isoindoline-1,3-dione], the “substrate protein remaining % IKZF1” value at IKZF1 was “B (80%< substrate protein remaining %≤ 100%)”. The “substrate protein remaining % CK1α” value at CK1α is “B (80%< substrate protein remaining %≤ 100%)”. Also, the “substrate protein remaining % WEE1” value at WEE1 is “A (0% ≤ substrate protein remaining % ≤ 80%)”. The “substrate protein remaining % IKZF2” value at IKZF2 is reported as “B (80%< substrate protein remaining %≤ 100%)”. Further, at IKZF3, the “substrate protein remaining % IKZF3” value was “B (80%< substrate protein remaining %≤ 100%)”. For the same compound, on GSPT1, the “substrate protein remaining % GSPT1” value is “B (80%< substrate protein remaining %≤ 100%)”.
`CC1(C)CCC(CN2CCN(Cc3ccc4c(c3)C(=O)N(N3CCC(=O)NC3=O)C4=O)C(C(F)(F)F)C2)=C(c2ccc(Cl)cc2)C1` (stereo not drawn) [GT-07301, 5-((4-((4'-chloro-5,5-dimethyl-3,4,5,6-tetrahydro-[1,1'-biphenyl]-2-yl)methyl)-2-(trifluoromethyl)piperazin-1-yl)methyl)-2-(2,4-dioxotetrahydropyrimidin-1(2H)-yl)isoindoline-1,3-dione]: the “substrate protein remaining % IKZF1” value at IKZF1 is given as “B (80%< substrate protein remaining %≤ 100%)”. For the same compound, the “substrate protein remaining % CK1α” value at CK1α is recorded as “B (80%< substrate protein remaining %≤ 100%)”. Moreover, at WEE1, the “substrate protein remaining % WEE1” value was “B (80%< substrate protein remaining %≤ 100%)”. Besides, the “substrate protein remaining % IKZF2” value at IKZF2 is on record as “B (80%< substrate protein remaining %≤ 100%)”. Moreover, at IKZF3, the “substrate protein remaining % IKZF3” value is “B (80%< substrate protein remaining %≤ 100%)”. Moreover, on GSPT1, the “substrate protein remaining % GSPT1” value is on record as “A (0% ≤ substrate protein remaining % ≤ 80%)”.
With `O=C1CCN(N2C(=O)c3ccc(CN4CCN(CC5=C(c6ccc(F)cc6)CCCC5)CC4)cc3C2=O)C(=O)N1` [GT-07302, 2-(2,4-dioxotetrahydropyrimidin-1(2H)-yl)-5-((4-((4'-fluoro-3,4,5,6-tetrahydro-[1,1'-biphenyl]-2-yl)methyl)piperazin-1-yl)methyl)isoindoline-1,3-dione], the “substrate protein remaining % IKZF1” value on IKZF1 was “B (80%< substrate protein remaining %≤ 100%)”. For the same compound, the “substrate protein remaining % CK1α” value on CK1α is “B (80%< substrate protein remaining %≤ 100%)”. The “substrate protein remaining % WEE1” value at WEE1 is “A (0% ≤ substrate protein remaining % ≤ 80%)”. Besides, on IKZF2, the “substrate protein remaining % IKZF2” value was “B (80%< substrate protein remaining %≤ 100%)”. Further, the “substrate protein remaining % IKZF3” value on IKZF3 was “B (80%< substrate protein remaining %≤ 100%)”. Also, the “substrate protein remaining % GSPT1” value on GSPT1 is “B (80%< substrate protein remaining %≤ 100%)”.
For `CC1(C)CC(c2ccc(Cl)cc2)=C(CN2CCN(Cc3ccc4c(c3)C(=O)N(N3CCC(=O)NC3=O)C4=O)CC2)CO1` [GT-07304, 5-((4-((4-(4-chlorophenyl)-6,6-dimethyl-5,6-dihydro-2H-pyran-3-yl)methyl)piperazin-1-yl)methyl)-2-(2,4-dioxotetrahydropyrimidin-1(2H)-yl)isoindoline-1,3-dione], on IKZF1, the “substrate protein remaining % IKZF1” value is “B (80%< substrate protein remaining %≤ 100%)”. Moreover, the “substrate protein remaining % CK1α” value at CK1α was “A (0% ≤ substrate protein remaining % ≤ 80%)”. For the same compound, the “substrate protein remaining % WEE1” value on WEE1 is recorded as “B (80%< substrate protein remaining %≤ 100%)”. Further, the “substrate protein remaining % IKZF2” value on IKZF2 is on record as “B (80%< substrate protein remaining %≤ 100%)”. The “substrate protein remaining % IKZF3” value on IKZF3 is on record as “B (80%< substrate protein remaining %≤ 100%)”. For the same compound, the “substrate protein remaining % GSPT1” value on GSPT1 is “A (0% ≤ substrate protein remaining % ≤ 80%)”.
In the case of `Cc1ccsc1C1CCN(Cc2ccc3c(c2)CN(N2CCC(=O)NC2=O)C3=O)CC1` [GT-07305, 1-(5-((4-(3-methylthiophen-2-yl)piperidin-1-yl)methyl)-1-oxoisoindolin-2-yl)dihydropyrimidine-2,4(1H,3H)-dione], the “substrate protein remaining % IKZF1” value at IKZF1 is reported as “B (80%< substrate protein remaining %≤ 100%)”. Besides, the “substrate protein remaining % CK1α” value on CK1α is on record as “B (80%< substrate protein remaining %≤ 100%)”. Also, the “substrate protein remaining % WEE1” value on WEE1 is given as “B (80%< substrate protein remaining %≤ 100%)”. Moreover, the “substrate protein remaining % IKZF2” value at IKZF2 was “A (0% ≤ substrate protein remaining % ≤ 80%)”. Further, the “substrate protein remaining % IKZF3” value on IKZF3 was “A (0% ≤ substrate protein remaining % ≤ 80%)”. Also, the “substrate protein remaining % GSPT1” value on GSPT1 is given as “A (0% ≤ substrate protein remaining % ≤ 80%)”.
`Cc1ccsc1C1CCN(Cc2ccc3c(c2)C(=O)N(N2CCC(=O)NC2=O)C3=O)CC1` [GT-07306, 2-(2,4-dioxotetrahydropyrimidin-1(2H)-yl)-5-((4-(3-methylthiophen-2-yl)piperidin-1-yl)methyl)isoindoline-1,3-dione]: the “substrate protein remaining % IKZF1” value at IKZF1 is reported as “B (80%< substrate protein remaining %≤ 100%)”. At CK1α, the “substrate protein remaining % CK1α” value is “B (80%< substrate protein remaining %≤ 100%)”. Besides, on WEE1, the “substrate protein remaining % WEE1” value is listed as “B (80%< substrate protein remaining %≤ 100%)”. In addition, at IKZF2, the “substrate protein remaining % IKZF2” value was “B (80%< substrate protein remaining %≤ 100%)”. Further, the “substrate protein remaining % IKZF3” value on IKZF3 is recorded as “A (0% ≤ substrate protein remaining % ≤ 80%)”. Also, at GSPT1, the “substrate protein remaining % GSPT1” value was “A (0% ≤ substrate protein remaining % ≤ 80%)”.
